The subject of assay [1] is BJ-TERT/LT/ST/RAS^V12 cells. Description: Western blot for active caspase-3. It counts as cell-based, human. How it is done:
BJ-TERT/LT/ST/RAS^V12 cells were seeded prior to the experiment at 5×10^5 cells in 60 mm dishes. The cells were treated with 5 μg/ml erastin (9 μM) for 2, 4, 6, 8 or 10 hours. One dish was maintained for camptothecin treatment (0.4 μlg/ml for 24 h) as a positive control. Cells were lysed after each time point in lysis buffer (50 mM HEPES KOH pH 7.4, […], 2 mM EDTA, 0.5% Triton X-100, 1.5 mM Na3VO4, 50 mM NaF, 10 mM sodium pyrophosphate, 10 mM sodium beta-glycerophosphate and protease inhibitor tablet (Roche)). Protein content was quantified using a Biorad protein assay reagent. Equal amounts of protein were resolved on 16% SDS-polyacrylamide gel. The electrophoresed proteins were transblotted onto a PVDF membrane, blocked with 5% milk and incubated with anti-active caspase-3 polyclonal antibody (BD Pharmingen) at 1:1500 dilution overnight at 4° C. The membrane was then incubated in anti-rabbit-HRP (Santa Cruz Biotechnology) at 1:3000 dilution for 1 hour and developed with an enhanced chemiluminescence mixture (NEN life science, Renaissance). To test for equivalent loading in each lane, blots were stripped, blocked, and probed with an anti-eIF-4E antibody (BD Transduction laboratories) at 1:1000 dilution.
Background: A western blot detects proteins with antibodies after separation by electrophoresis.

Assay [2] relates to BJ-TERT/LT/ST/RAS^V12 cells. Nature of the assay: Nuclear morphology assay. In kind it is cell-based, human. The source says:
Applicants sought to characterize the type of cell death induced by CPT and erastin in tumorigenic BJ-TERT/LT/ST/RAS^V12 cells. […] To determine whether erastin or CPT induces apoptosis in their system, Applicants monitored the nuclear morphology of CPT- and erastin-treated tumorigenic cells using fluorescence microscopy. […] Since nuclear morphological change is required of apoptotic cells, Applicants conclude that cell death induced by erastin is non-apoptotic. […] Additionally, nuclei remained intact in erastin-treated tumor cells (FIG. 9).
200,000 tumorigenic BJ-TERT/LT/ST/RAS^V12 cells were seeded in 2 mL on glass coverslips in each well of a six-well dish, treated with nothing (NT), 9 μM erastin or 1.1 μM camptothecin (CPT) in growth medium for 18 hours while incubating at 37° C. with 5% CO2. Nuclei were stained with 25 μg/mL Hoechst 33342 (Molecular Probes) and viewed using an oil immersion 100× objective on a fluorescence microscope.

The test system of assay [3] is engineered cell lines. Description: Selectivity across the engineered cell lines (calcein AM IC50 ratios). In kind it is cell-based, human. To be noted: from selectivity ratio for each subsequent pair of cell lines in a series. As for the experimental part: To calculate this selectivity score between two cell lines, the IC50 for a compound in one cell line was divided by the IC50 for the same compound in a second cell line. […] The “tumor selectivity score” was calculated for each compound, by dividing the IC50 value for the compound in the parental, primary BJ cells by the IC50 value for the compound in engineered BJ-TERTALT/ST/RAS^V12 cells, containing all four genetic elements required to create tumorigenic cells (Table 1).
Applicants sought to determine the genetic basis of selectivity for each compound. That is, for each compound, they attempted to define the gene or combination of genes responsible for rendering cells sensitive to the compound (Table 1).
The IC50 in primary BJ cells was divided by the IC50 in BJ-TERT/LT/ST/RAS^V12 tumorigenic cells to obtain a tumor selectivity ratio for each compound. The compound selectivity for each genetic element was determined by calculating the selectivity ratio for each subsequent pair of cell lines in a series.

Assay [4] concerns tumor cells versus normal cells. Description: Erastin analogs tested for activity and selectivity in tumor cells versus normal cells. It counts as cell-based. The source says: Applicants additionally tested 135 analogs of erastin for activity and selectivity in tumor cells versus normal cells. […] This compound was named erastin B (see FIG. 8). In certain embodiments of the invention, the invention relates to the compound, erastin.
Applicants additionally tested other analogs of erastin for activity and selectivity in tumor cells versus normal cells. […] This compound was named erastin B (see FIG. 8). BJELR cells are BJ-TERT/LT/ST/RAS^V12 cells, and BJEH are BJ-TERT cells.

Assay [5] relates to TOP1. Nature of the assay: Western blot for TOP1 expression in BJ primary cells. In kind it is cell-based, human. The source says:
(A-C) Western blot of lysates from BJ, BJ-TERT, BJ-TERT/LT/ST, BJ-TERT/LT/ST/RAS^V12, BJ-TERT/LT/RAS^V12 and BJ-TERT/LT/RAS^V12/ST cells with an antibody directed against topoisomerase II (A) or TOPI (B, C). In panel (C), cells were transfected with a siRNA directed against TOPI, lamic A/C or with a control double strand DNA duplex of the same length (TOPI dsDNA). In each case, the blot was probed with an antibody against eIF-4E to identify differences in the amount of protein loaded. The relative amount is quantitated below each band. (D) A TOPI siRNA prevents cell death caused by camptothecin in engineered tumor cells. Cell number was determined after transfection with a siRNA directed against TOPI and treatment with the indicated concentrations of camptothecin. (E) Okadaic acid, an inhibitor of PP2A and other cellular phosphatases, sensitizes primary human cells to camptothecin. BJ primary cells were treated simultaneously with the indicated concentrations of both camptothecin and okadaic acid and the effect on calcein AM viability staining was determined. […] BJ primary cells were treated with the indicated concentrations of okadaic acid and the expression level of TOPI was determined by western blot. The relative amount is quantitated below each band. […]

For assay [6], the system named is BJ primary cells. Description: Sensitization of BJ primary cells by co-treatment (calcein AM viability). In kind it is cell-based, human. The source says: (A-C) Western blot of lysates from BJ, BJ-TERT, BJ-TERT/LT/ST, BJ-TERT/LT/ST/RAS^V12, BJ-TERT/LT/RAS^V12 and BJ-TERT/LT/RAS^V12/ST cells with an antibody directed against topoisomerase II (A) or TOPI (B, C). In panel (C), cells were transfected with a siRNA directed against TOPI, lamic A/C or with a control double strand DNA duplex of the same length (TOPI dsDNA). In each case, the blot was probed with an antibody against eIF-4E to identify differences in the amount of protein loaded. The relative amount is quantitated below each band. (D) A TOPI siRNA prevents cell death caused by camptothecin in engineered tumor cells. Cell number was determined after transfection with a siRNA directed against TOPI and treatment with the indicated concentrations of camptothecin. (E) Okadaic acid, an inhibitor of PP2A and other cellular phosphatases, sensitizes primary human cells to camptothecin. BJ primary cells were treated simultaneously with the indicated concentrations of both camptothecin and okadaic acid and the effect on calcein AM viability staining was determined. […] BJ primary cells were treated with the indicated concentrations of okadaic acid and the expression level of TOPI was determined by western blot. The relative amount is quantitated below each band.
The compounds in group (iii) are camptothecin (CPT) and a novel compound from a combinatorial library, which Applicants have named erastin, for eradicator of RAS and ST-expressing cells (FIG. 2). Efficient CPT-induced and erastin-induced cell death requires the presence of both ST and RAS^V12 (FIGS. 3 and 4 and Table 1). Although CPT and erastin have a similar genetic basis of selectivity, they have distinct mechanisms of action. CPT is partially active in cells lacking RB function (via expression of E7), whereas erastin is not, and CPT requires two days to cause death in BJ-TERT/LT/ST/RAS^V12 cells, while erastin is 100% effective within 18 hours (FIGS. 3 and 4). […]

As for `CC[C@@]1(O)C(=O)OCc2c1cc1n(c2=O)Cc2cc3ccccc3nc2-1` [Camptothecin], in assay [1], the “cleaved, active caspase 3” value is on record as “appearance of cleaved, active caspase 3”. Further, the “nuclear morphology by fluorescence microscopy” value in assay [2] (9 μM erastin or 1.1 μM camptothecin, 18 hours) was “karyorhexis and margination of chromatin were clearly visible”. Further, the fragmented nuclei in assay [2] (BJ-TERT/LT/ST/RAS^V12 cells) is given as 10-20 % of total nuclei. Moreover, in assay [3], the “Genetic basis of Selectivity” value was “RAS^v12/PP2A/RB”.
erastin B: the “activity and selectivity of erastin analogs/derivatives” value in assay [4] was “active and selective, but less potent than erastin”.
On to `C=C1[C@@H](O)[C@@H]2O[C@]3(CC[C@H](/C=C/[C@@H](C)[C@@H]4CC(C)=C[C@@]5(O[C@H](C[C@@](C)(O)C(=O)O)CC[C@H]5O)O4)O3)CC[C@H]2O[C@@H]1[C@@H](O)C[C@H](C)[C@H]1O[C@@]2(CCCCO2)CC[C@H]1C` [okadaic acid], for which the “expression level of TOP1 by western blot” value in assay [5] is given as “stimulates expression of TOP1”. The sensitization to camptothecin result in assay [6] (BJ (or BJ-TERT) cells, simultaneous treatment with camptothecin) is “renders BJ cells sensitive to camptothecin”. Moreover, the sensitization to erastin result in assay [6] (BJ or BJ-TERT cells) is “does not render BJ or BJ-TERT cells sensitive to erastin”.

These data come from patent US7615554B2, “Erastin and erastin binding proteins, and uses thereof” (Prolexys Pharmaceuticals, Inc., priority 2005, dated 2009).
